According to BindingDB's records for doi:10.1016/j.bioorg.2015.10.006 (University of Karachi, 2015):

What follows are compounds tested against T1, Thymidine phosphorylase (Escherichia coli (strain SMS-3-5 / SECEC), UniProt B1LEI7) (assay: Thymidine Phosphorylase Inhibition Assay). Details: pH 7.
T1 sequence (B1LEI7 whole entry): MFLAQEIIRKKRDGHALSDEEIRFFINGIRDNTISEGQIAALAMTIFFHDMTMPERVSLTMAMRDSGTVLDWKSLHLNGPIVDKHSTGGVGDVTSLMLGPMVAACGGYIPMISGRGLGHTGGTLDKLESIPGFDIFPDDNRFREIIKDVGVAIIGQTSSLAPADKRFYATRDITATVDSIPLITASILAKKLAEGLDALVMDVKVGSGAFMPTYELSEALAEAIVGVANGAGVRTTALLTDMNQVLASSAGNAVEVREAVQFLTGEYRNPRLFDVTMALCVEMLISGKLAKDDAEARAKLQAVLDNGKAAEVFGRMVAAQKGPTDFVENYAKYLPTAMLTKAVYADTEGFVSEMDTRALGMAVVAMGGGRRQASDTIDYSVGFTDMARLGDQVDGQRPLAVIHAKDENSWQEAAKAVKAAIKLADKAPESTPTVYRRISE
Protocol: TP inhibition assay was performed spectrophotometrically. The method of Bera et al. was followed with slight modifications. Reaction mixture of 200 µL, contained 20 µL of enzyme (0.058 unit/well), 150 µL of potassium phosphate buffer (pH 7.0, 50 mM), and 10 µL of test compound (0.5 mM). The reaction mixture was then incubated for 10 min at 30 °C. […] Every experiment was run in triplicate. 7-Deazaxanthine was used as positive control.

Compound | IC50
CCOc1cc(-c2nc3ccccc3c(=O)[nH]2)ccc1O | 256 µM
O=c1[nH]c(-c2ccc(O)cc2)nc2ccccc12 | 234 µM
O=c1[nH]c(-c2ccc(O)c(O)c2)nc2ccccc12 | 42.9 µM
O=c1[nH]c(-c2cc(O)ccc2O)nc2ccccc12 | 59.5 µM

Next, values leading:

IC50 | Compound
169 µM | COc1ccc(-c2nc3ccccc3c(=O)[nH]2)cc1O
295 µM | O=c1[nH]c(-c2cccc(O)c2)nc2ccccc12
